Assays:
[1] = test system: hippocampal CA1 pyramidal neurones; assay: Whole cell recording of EPSC amplitude in hippocampal slices; format: cell-based, male Sprague-Dawley rats
Description: The stimulatory activity of the compounds of the invention on the central nervous system was evaluated in-vitro by recording the excitatory postsynaptic current (EPSC) amplitude in stimulated hippocampal CA1 pyramidal neurones from slices of male Sprague-Dawley rats, as described in more detail hereinafter in the Experimental and Preparations section.
Male Sprague-Dawley rats, 15 to 20 days old at the time of surgery, were used in this study. On the day of the experiment, animals were terminally anaesthetized using isofluorane, cervically dislocated, and decapitated. The brain was removed and 400 μm thick parasagittal brain slices prepared using a Leica VT1000S. Slices were maintained in an artificial cerebrospinal fluid (ACSF) of the following composition (in mM, aqueous solution): 127 NaCl; 1.9 KCl; 1.2 KH2PO4; 2.4 CaCl2; 1.3 MgCl2; 26 NaHCO3; and, 10 D-glucose, bubbled with a mixture of 95% O2/5% CO2, at room temperature for 1 hour after slicing before commencing electrophysiological recordings. […]

[2] = PPB (compound bound to proteins); conditions: plasma
[3] = test system: cryopreserved beagle dog hepatocytes; assay: Metabolic stability in cryopreserved beagle dog hepatocytes; format: in vitro ADME; conditions: Example 2 versus tianeptine
Description: (§1) The metabolic stability of the compounds of the invention was evaluated in-vitro using cryopreserved beagle dog hepatocytes, as described in more detail hereinafter in the Experimental and Preparations section.
(§2) The test compound (1 μM) was incubated with cryopreserved beagle dog hepatocytes at 3 million cells per ml, in 300 μL of Leibovitz's medium for a total period of 90 min. During this period, 25 μL aliquots were taken at 1, 10, 30, 50, 70 & 90 minutes and quenched in acetonitrile. Quenched samples were centrifuged to pellet the precipitated protein, and supernatant removed for LC-MS-MS (high performance liquid chromatography coupled to a tandem mass spectrometer) analysis to quantify the amount of the parent test compound remaining. The first order elimination rate constant (k) was determined from a plot of natural log of parent test compound remaining versus time, and used to calculate a metabolic stability half-life (T1/2), where T1/2=Ln2/k where k=elimination rate constant.

[4] = as above; format: in vitro ADME; conditions: beagle, dog, cryopreserved hepatocytes, test compound 1 μM, 3 million cells per ml, 90 min incubation
Description: as §1, §2

## CN1c2ccccc2C(NCCCCOCC(=O)O)c2ccc(Cl)cc2S1(=O)=O (stereo not drawn) [Example 2, 2-(4-((3-chloro-6-methyl-5,5-dioxido-6,11-dihydrodibenzo[c,f][1,2]thiazepin-11-yl)amino)butoxy)acetic acid]
[1]; 10 μM bath applied, percentage of the control, mean±S.E.M (n=6)
  increase of control EPSC amplitude: 224.67±34.27%
[1]; representative electrophysiological recording, 10 μM
  effect on excitatory transmission in CA1 region of hippocampus (FIG. 1): facilitates excitatory transmission
[2]
  fraction unbound: 0.18
[3]
  metabolic stability half life compared with tianeptine: more than 10 times
[4]; T1/2=Ln2/k
  half-life at 1 μM: 34.4 h
[4]; read-out: Clint (intrinsic clearance)
  hepatocyte CLint at 1 μM: 0.3 µL/min/1e6 cells

Reference: patent publication US9487492B2, “Dibenzothiazepine derivatives and their use in the treatment of CNS disorders” (NUMEDICUS LIMITED, priority 2011, dated 2016)
